According to patent US20250230154A1, “COMPOUND HAVING SHP2 PROTEIN DEGRADING ACTIVITY, AND MEDICAL USES THEREOF” (UBIX THERAPEUTICS, INC., priority 2021, published 2025):

Target: T1, SHP2 protein (Homo sapiens, UniProt Q06124)
T1 sequence (Q06124 1-593): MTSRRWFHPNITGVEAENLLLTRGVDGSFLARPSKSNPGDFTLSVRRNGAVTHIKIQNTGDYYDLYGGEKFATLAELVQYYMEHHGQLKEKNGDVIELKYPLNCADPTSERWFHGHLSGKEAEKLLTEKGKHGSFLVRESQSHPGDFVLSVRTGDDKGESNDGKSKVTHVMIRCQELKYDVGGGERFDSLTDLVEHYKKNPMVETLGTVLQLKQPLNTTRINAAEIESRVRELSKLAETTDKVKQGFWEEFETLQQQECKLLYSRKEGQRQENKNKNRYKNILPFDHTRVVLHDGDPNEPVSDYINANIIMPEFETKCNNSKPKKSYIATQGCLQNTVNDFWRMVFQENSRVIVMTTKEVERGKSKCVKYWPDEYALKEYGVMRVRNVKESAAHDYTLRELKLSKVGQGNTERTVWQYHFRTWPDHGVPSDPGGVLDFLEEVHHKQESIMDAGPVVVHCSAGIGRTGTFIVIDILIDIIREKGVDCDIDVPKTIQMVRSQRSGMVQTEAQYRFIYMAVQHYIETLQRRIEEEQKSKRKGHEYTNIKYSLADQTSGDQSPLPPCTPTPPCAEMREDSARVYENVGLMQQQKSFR
Assay: Measurement of SHP2 protein degradation in KYSE-520 cells (western blotting)
Format: cell-based
Set-up: endogenous in cells
Settings: 24 hours
Protocol: Experimental Example 1: Measurement of SHP2 Protein Degradation in KYSE-520 Cells
KYSE-520 cells were treated with the synthesized Example compound, and the amount of SHP2 protein present in the cells was measured using western blotting detection. The protocol of the experiment conducted using KYSE-520 cells was as follows:
[Culture] KYSE-520 cells resuspended in RPMI1640 MEDIUM (Hyclone, SH30027.01) containing 5% FBS (Hyclone, SV30207.02) and 1% Penicillin-streptomycin (Welgene, LS 202-02) were seeded at a density of 2.5×10^5/well in a 6-well plate in an amount of 2 ml each and incubated for 2 days.
[Compound treatment] […] After 24 hours, cells were harvested. For the negative control group, DMSO diluted 1/10 to the media (3 mL DMSO+27 mL media) was added.
[Cell Lysis and Protein Quantification] Lysis buffer was prepared as follows: […] of RIPA buffer (Biosesang, RC2038-050-00)+0.5 mM PMSF (SIGMA, P7626)+1× Protease/Phosphatase Inhibitor (Cell signaling, 5872S) per well was added and placed on ice for 30 minutes (vortexing at 0 and 30 minutes, respectively). After sonication process (10 seconds pulse, 30 seconds rest, 5 cycles, 70% amplification), centrifugation (15000 g, 15 min, 4° C.) was performed, and then only the supernatant was taken and transferred to a new microtube. The sample was diluted ¼ with RIPA buffer in a 96-well plate, and mixed with A:B=50:1 of the BCA Protein Assay Kit (iNtRON, 21071). […] each of the mixture was left at 37° C. for 30 minutes, and cooled for 10 minutes. Then, absorbance was measured at 562 nm with the SYNERGY H1 microplate reader from BioTek. After making a sample by quantifying the protein with the measured value, boiling was performed at 70° C. for 10 minutes. At this time, the sample buffer used was a mixture of NuPAGE or Bolt 4× sample buffer (Invitrogen) and each 10× sample reducing agent according to the gel to be used, and RIPA buffer was used for protein dilution.
[Western blotting detection method] The same amount of sample was loaded on NuPAGE or Bolt Bis-tris 4-12% gradient gel and run (200 V, 35 minutes). It was transferred to 0.2 mm NC membrane with Trans-blot Turbo (BIO-RAD) (1.3 A constant, 25 V limit, 15 minutes). Blocking was performed at room temperature for 1 hour with Skim milk or Intercept Blocking Buffer (LI-COR, 927-60001):0.1% TBST=1:1. Anti SHPTP2 Mouse (1:500 in 5% Skim milk/TBST, size: 70 kDa, Santacruz sc-7384) was incubated overnight at 4° C., and Anti GAPDH Rabbit (1:2,000 in 5% BSA/0.2% TBST, size: 37 kDa, CST #2118) was incubated at room temperature for 1 hour 30 minutes or 3 hours. It was washed 3 times for 5 minutes each with 0.2% TBST washing buffer. Secondary antibody Anti-Rabbit IgG (1:5,000 in 5% Skim milk/0.2% TBST, CST), and IRDye® 680RD Goat anti-Rabbit IgG Secondary Antibody (1:10,000 in 5% BSA/0.2% TBST, LI-COR 926-68071) were incubated for 45 minutes on a rocker at room temperature. It was washed 5 times for 5 minutes each with 0.2% TBST washing buffer and detected with LI-COR's Odyssey. At this time, SHPTP2 was detected using SuperSignal West Pico PLUS Chemiluminescent Substrate, and house-keeping genes were also detected.
In the results of Table 4 below, Compounds 1-7, 13-19, and 21-26 are results in KYSE-520 cells, and the others are results in MV-4-11 cells.

Compound	SHP2 degradation (%) 10 nM	SHP2 degradation (%) 100 nM	SHP2 degradation (%) 1000 nM
Cc1ncsc1-c1ccc(CNC(=O)[C@@H]2C[C@@H](O)CN2C(=O)[C@@H](NC(=O)C2(F)CC2)C(C)(C)C)c(OCCCN2CCC(C(=O)Nc3cccc(Sc4cnc(N5CCC(C)(CN)CC5)cn4)c3Cl)CC2)c1 [Example 1, N-(3-((5-(4-(aminomethyl)-4-methylpiperidin-1-yl)pyrazin-2-yl)thio)-2-chlorophenyl)-1-(3-(2-(((2S,4R)-1-((S)-2-(1-fluorocyclopropane-1-carboxamido)-3,3-dimethylbutanoyl)-4-hydroxypyrrolidine-2-carboxamido)methyl)-5-(4-methylthiazol-5-yl)phenoxy)propyl)piperidine-4-carboxamide]	28.9%	64.5%	74.5%
Cc1ncsc1-c1ccc(CNC(=O)[C@@H]2C[C@@H](O)CN2C(=O)[C@@H](NC(=O)C2(F)CC2)C(C)(C)C)c(OCCCCN2CCC(CCCC(=O)Nc3cccc(Sc4cnc(N5CCC(C)(CN)CC5)cn4)c3Cl)CC2)c1 [Example 17, (2S,4R)—N-(2-(4-(4-(4-((3-((5-(4-(aminomethyl)-4-methylpiperidin-1-yl)pyrazin-2-yl)thio)-2-chlorophenyl)amino)-4-oxobutyl)piperidin-1-yl)butoxy)-4-(4-methylthiazol-5-yl)benzyl)-1-((S)-2-(1-fluorocyclopropane-1-carboxamido)-3,3-dimethylbutanoyl)-4-hydroxypyrrolidine-2-carboxamide]	–	71.8%	94.9%
Cc1ncsc1-c1ccc(CNC(=O)[C@@H]2C[C@@H](O)CN2C(=O)[C@@H](NC(=O)C2(F)CC2)C(C)(C)C)c(OCCCC(=O)N2CCC(CC(=O)Nc3cccc(Sc4cnc(N5CCC(C)(CN)CC5)cn4)c3Cl)CC2)c1 [Example 23, (2S,4R)—N-(2-(4-(4-(2-((3-((5-(4-(aminomethyl)-4-methylpiperidin-1-yl)pyrazin-2-yl)thio)-2-chlorophenyl)amino)-2-oxoethyl)piperidin-1-yl)-4-oxobutoxy)-4-(4-methylthiazol-5-yl)benzyl)-1-((S)-2-(1-fluorocyclopropane-1-carboxamido)-3,3-dimethylbutanoyl)-4-hydroxypyrrolidine-2-carboxamide]	8.4%	44.3%	64.2%
